Inhibition and IC50 data for 29 compounds are collected here from patent publication US8822449B2, “Substituted aminoindanes and analogs thereof, and the pharmaceutical use thereof” (Sanofi, priority 2008, dated 2014).

For the experiment, the target named is T1, sodium-proton exchanger of subtype 3 (NHE3) (Homo sapiens, UniProt P48764).
T1 construct: expressed in transfected cells
T1 sequence (P48764 26-834): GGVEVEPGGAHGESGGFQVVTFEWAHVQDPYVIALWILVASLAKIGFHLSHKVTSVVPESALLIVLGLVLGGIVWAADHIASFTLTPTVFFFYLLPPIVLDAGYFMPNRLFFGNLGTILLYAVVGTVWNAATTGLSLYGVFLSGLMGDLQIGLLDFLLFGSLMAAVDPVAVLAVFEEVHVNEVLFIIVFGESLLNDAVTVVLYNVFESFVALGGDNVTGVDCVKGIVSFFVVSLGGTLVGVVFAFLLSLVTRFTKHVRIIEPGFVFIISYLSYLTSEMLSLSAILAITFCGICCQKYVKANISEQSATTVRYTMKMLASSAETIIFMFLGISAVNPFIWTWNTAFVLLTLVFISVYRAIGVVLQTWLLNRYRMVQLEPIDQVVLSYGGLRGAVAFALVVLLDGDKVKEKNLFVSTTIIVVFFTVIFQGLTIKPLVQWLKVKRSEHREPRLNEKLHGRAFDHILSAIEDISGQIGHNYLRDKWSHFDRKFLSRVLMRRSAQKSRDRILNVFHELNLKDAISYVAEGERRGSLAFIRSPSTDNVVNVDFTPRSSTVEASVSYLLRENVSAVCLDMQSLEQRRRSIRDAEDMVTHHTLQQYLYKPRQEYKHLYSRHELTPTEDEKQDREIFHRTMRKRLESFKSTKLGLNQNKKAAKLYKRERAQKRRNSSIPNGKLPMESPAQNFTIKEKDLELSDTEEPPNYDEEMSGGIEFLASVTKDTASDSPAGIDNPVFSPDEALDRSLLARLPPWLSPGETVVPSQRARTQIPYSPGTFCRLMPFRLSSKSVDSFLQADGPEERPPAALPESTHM
The experiment can be described thus: Recovery of intracellular pH (pHi) after acidification in LAP1 cells stably expressing NHE3 (BCECF fluorescence, FLIPR). In kind it is cell-based. Conditions: LAP1 cells stably expressing NHE3, pH recovery after acidification, range 1 is % inhibition at 10 μM.

[1] abbreviates: read-out: Activity range (inhibitory effect on NHE3).

The structures appear in SMILES notation. Where two headings read alike, the source gives them in different places.

Take `NS(=O)(=O)c1ccc(O[C@H]2c3cccc(Cl)c3C[C@@H]2N2CCCC2)cc1` (racemic) [Example 471, 4-(rac-trans-(1,2)-4-chloro-2-pyrrolidin-1-ylindan-1-yloxy)benzenesulfonamide]: the inhibition at 10 µM under setting [1] was in the range of 20 to 50%.

Regarding `c1ccc2c(c1)C[C@@H](N1C[C@H]3CNC[C@H]3C1)[C@@H]2Oc1ccc(-n2ccnc2)cc1` (racemic) [Example 7, 2-[rac-trans-(1,2)-1-(4-imidazol-1-ylphenoxy)indan-2-yl]octahydropyrrolo[3,4-c]pyrrole], the IC50 under setting [1] is 1 to 10 µM.

For `CC(=O)Nc1cccc(O[C@H]2c3cc(Cl)cc(Cl)c3C[C@@H]2N(C)C)c1` (racemic) [Example 645, N-[3-(rac-trans-(1,2)-4,6-dichloro-2-dimethylaminoindan-1-yloxy)phenyl]acetamide], the IC50 under setting [1] lay in the range of 1 to 10 µM.

As for `NC1CCN([C@@H]2Cc3ccccc3[C@H]2Oc2ccnc3ccccc23)C1` (mixture of isomers) [Example 275, 1-[rac-trans-(1,2)-1-(quinolin-4-yloxy)indan-2-yl]pyrrolidin-3-ylamine], under setting [1], the IC50 lay in the range of 1 to 10 µM.

Turning to `Clc1cc(Cl)c2c(c1)[C@H](Oc1cccc(-n3cnnn3)c1)[C@@H](N1CCNCC1)C2` [Example 248, 1-[(1S,2S)-4,6-dichloro-1-(3-tetrazol-1-ylphenoxy)indan-2-yl]piperazine], under setting [1], the IC50 was less than 1 µM.

Turning to `N#Cc1ccc(O[C@H]2c3ccccc3CC[C@@H]2N2CCOCC2)cc1F` (racemic) [Example 396, 2-fluoro-4-(rac-trans-(1,2)-2-morpholin-4-yl-1,2,3,4-tetrahydronaphthalen-1-yloxy)benzonitrile], under setting [1], the inhibition at 10 µM was in the range of 20 to 50%.

For `Cc1nnc(C)n1-c1ccc(O[C@H]2c3cc(Cl)ccc3C[C@@H]2N2CCS(=O)(=O)CC2)c(Cl)c1` [Example 567, 4-{trans-(1S,2S)-6-chloro-1-[2-chloro-4-(3,5-dimethyl-[1,2,4]triazol-4-yl)phenoxy]indan-2-yl}thiomorpholine 1,1-dioxide], the IC50 under setting [1] lay within 1 to 10 µM.

In the case of `CS(=O)(=O)c1cccc(O[C@H]2c3ccccc3C[C@@H]2N2CCCC2)c1` (racemic) [Example 269, 1-[rac-trans-(1,2)-1-(3-methanesulfonylphenoxy)indan-2-yl]pyrrolidine], the inhibition at 10 µM under setting [1] fell in the range of 20 to 50%.

Turning to `Clc1cnccc1O[C@H]1c2ccccc2C[C@@H]1CN1CCCC1` (racemic) [Example 443, 3-chloro-4-(2-pyrrolidin-1-ylmethylindan-1-yloxy)pyridine], the inhibition at 10 µM under setting [1] lay in the range of 20 to 50%.

On to `Cn1ccn(-c2ccc(O[C@H]3c4cc(Cl)cc(F)c4C[C@@H]3NC3CCCC3)c(F)c2)c1=O` [Example 755, 1-[4-(trans-(1S,2S)-6-Chloro-2-cyclopentylamino-4-fluoro-indan-1-yloxy)-3-fluoro-phenyl]-3-methyl-1,3-dihydro-imidazol-2-one], for which the IC50 under setting [1] is 1 to 10 µM.

For `Cc1c(O[C@H]2c3cc(Cl)cc(Cl)c3C[C@@H]2N2CC[C@@H](O)C2)cccc1-n1ccn(C)c1=O` [Example 312, 1-{3-[(1S,2S)-4,6-dichloro-2-((R)-3-hydroxypyrrolidin-1-yl)indan-1-yloxy]-2-methylphenyl}-3-methyl-1,3-dihydroimidazol-2-one], the inhibition at 10 µM under setting [1] is 20 to 50%.

Turning to `N#Cc1ccc(O[C@H]2c3ccccc3CC[C@@H]2N2CCC[C@H](N)C2)cc1F` (racemic) [Example 530, 4-[rac-trans-(1,2)-2-((S)-3-aminopiperidin-1-yl)-1,2,3,4-tetrahydronaphthalen-1-yloxy]-2-fluorobenzonitrile], under setting [1], the inhibition at 10 µM was in the range of 20 to 50%.

In the case of `Nc1ccc2c(O[C@H]3c4ccccc4CC[C@@H]3N3CCOCC3)cccc2c1` (racemic) [Example 569, 5-(rac-trans-(1,2)-2-morpholin-4-yl-1,2,3,4-tetrahydronaphthalen-1-yloxy)naphthalen-2-ylamine], under setting [1], the inhibition at 10 µM was in the range of 20 to 50%.

With `CC(=O)Nc1cccc(O[C@H]2c3ccccc3CC[C@@H]2N2CCC[C@@H](N)C2)c1` (racemic) [Example 676, N-{3-[rac-trans-(1,2)-2-((R)-3-aminopiperidin-1-yl)-1,2,3,4-tetrahydronaphthalen-1-yloxy]phenyl}acetamide], the IC50 under setting [1] is 1 to 10 µM.

Turning to `CC(=O)Nc1cccc(OC2c3ccccc3CC2N(C)C)c1` (racemic) [Example 638, N-[3-(rac-trans-(1,2)-2-dimethylaminoindan-1-yloxy)phenyl]acetamide], under setting [1], the IC50 fell in the range of 1 to 10 µM.

As for `N[C@H]1CCCN([C@H]2CCc3ccccc3[C@@H]2Oc2ccc(F)cc2)C1` (racemic) [Example 179, (S)-1-[rac-trans-(1,2)-1-(4-fluorophenoxy)-1,2,3,4-tetrahydronaphthalen-2-yl]piperidin-3-ylamine], the inhibition at 10 µM under setting [1] is 20 to 50%.

For the compound `N[C@@H]1CCCN([C@@H]2Cc3ccccc3[C@H]2Oc2ccc3oc(=O)sc3c2)C1` (racemic) [Example 579, 5-[rac-trans-(1,2)-2-((R)-3-aminopiperidin-1-yl)indan-1-yloxy]benzo[1,3]oxathiol-2-one], the IC50 under setting [1] lay in the range of 1 to 10 µM.

As for `N[C@@H]1CCCN([C@H]2CCc3ccccc3[C@@H]2Oc2ccc(F)cc2-c2ccno2)C1` (racemic) [Example 68, (R)-1-[rac-trans-(1,2)-1-(4-fluoro-2-isoxazol-5-ylphenoxy)-1,2,3,4-tetrahydronaphthalen-2-yl]piperidin-3-ylamine], under setting [1], the inhibition at 10 µM is 20 to 50%.

Regarding `CN1CCC2CN([C@H]3Cc4c(Cl)cc(Cl)cc4[C@@H]3Oc3ccc(S(C)(=O)=O)cc3)CC21` (single isomer, unassigned) [Example 582], under setting [1], the IC50 fell in the range of 1 to 10 µM.

Consider `CN1CCCN([C@H]2Cc3c(Cl)cc(Cl)cc3[C@@H]2Oc2ccc(C#N)cc2F)CC1` [Example 556, 4-[trans-(1S,2S)-4,6-dichloro-2-(4-methyl-[1,4]diazepan-1-yl)indan-1-yloxy]-3-fluorobenzonitrile], for which the IC50 under setting [1] was less than 1 µM.

For the compound `CS(=O)(=O)c1ccc(O[C@H]2c3cc(F)ccc3C[C@@H]2N2CCN(CC#N)CC2)cc1` (racemic) [Example 242, {4-[rac-trans-(1,2)-6-fluoro-1-(4-methanesulfonylphenoxy)indan-2-yl]piperazin-1-yl}acetonitrile], the inhibition at 10 µM under setting [1] was 20 to 50%.

Regarding `Cc1nnc(C)n1-c1ccc(O[C@@H]2c3ccccc3C[C@@]2(C)N2CCCC2)c(F)c1` (racemic) [Example 494, 4-[3-fluoro-4-(-2-methyl-2-pyrrolidin-1-ylindan-1-yloxy)phenyl]-3,5-dimethyl-4H-[1,2,4]triazole], the IC50 under setting [1] fell in the range of 1 to 10 µM.

Turning to `Cc1ccc(F)c(O[C@H]2c3ccccc3CC[C@@H]2N2CCC[C@H](N)C2)c1` (racemic) [Example 155, (S)-1-[rac-trans-(1,2)-1-(2-fluoro-5-methylphenoxy)-1,2,3,4-tetrahydronaphthalen-2-yl]piperidin-3-ylamine], under setting [1], the inhibition at 10 µM was in the range of 20 to 50%.

Take `Cn1ccn(-c2cccc(O[C@H]3c4ccccc4C[C@@H]3N3CCCC3)c2)c1=O` (racemic) [Example 352, 1-methyl-3-[3-(rac-trans-(1,2)-2-pyrrolidin-1-ylindan-1-yloxy)phenyl]-1,3-dihydroimidazol-2-one]: under setting [1], the IC50 was less than 1 µM.

`Cc1cc(O[C@H]2c3cc(F)cc(Cl)c3C[C@@H]2N2CCNCC2)ccc1S(C)(=O)=O` (racemic) [Example 281, 1-[rac-trans-(1,2)-4-chloro-6-fluoro-1-(4-methanesulfonyl-3-methylphenoxy)indan-2-yl]piperazine]: the IC50 under setting [1] is less than 1 µM.

Regarding `CS(=O)(=O)c1ccc(O[C@H]2c3cc(Cl)cc(Cl)c3C[C@@H]2N2CC[C@@H](N3CCCC3)C2)cc1` [Example 99, (R)-1′-[trans-(1S,2S)-4,6-dichloro-1-(4-methanesulfonylphenoxy)indan-2-yl]-[1,3′]bipyrrolidinyl], under setting [1], the IC50 is less than 1 µM.

Take `CCCc1ccc(NC(C)=O)cc1O[C@H]1c2ccccc2CC[C@@H]1N1CCC[C@@H](N)C1` (racemic) [Example 675, N-{3-[rac-trans-(1,2)-2-((R)-3-aminopiperidin-1-yl)-1,2,3,4-tetrahydronaphthalen-1-yloxy]-4-propylphenyl}acetamide]: under setting [1], the IC50 was in the range of 1 to 10 µM.

For `CN(C)S(=O)(=O)c1ccc(O[C@@H]2c3ccccc3C[C@H]2N2CCCC2)c(Cl)c1Cl` (racemic) [Example 362, 2,3-dichloro-N,N-dimethyl-4-(rac-trans-(1,2)-2-pyrrolidin-1-ylindan-1-yloxy)benzenesulfonamide], the IC50 (Activity range (inhibitory effect on NHE3)) was less than 1 µM.

Take `N[C@@H]1CCCN([C@H]2CCc3ccccc3[C@@H]2Oc2cccc(F)c2)C1` (racemic) [Example 57, (R)-1-[rac-trans-(1,2)-1-(3-fluorophenoxy)-1,2,3,4-tetrahydronaphthalen-2-yl]piperidin-3-ylamine]: the inhibition at 10 µM under setting [1] is 20 to 50%.
